Data reported in patent US9371335B2, “Spirothienopyran-piperidine derivatives as ORL-1 receptor antagonists for their use in the treatment of alcohol dependence and abuse” (Eli Lilly and Company, priority 2011, dated 2016).

Tested on: extracellular dopamine (DA) in the rat nucleus accumbens
Assay: Ethanol-stimulated increases in extracellular dopamine levels in the nucleus accumbens (microdialysis)
Assay type: in vivo, Sprague-Dawley rats
Description: Ethanol-Stimulated Increases in Extracellular Dopamine Levels in the Nucleus Accumbens:
Male Sprague-Dawley rats with a body weight of 260-300 g from Taconic Farms (Germantown, N.Y.) are implanted with a guide cannula (Bioanalytical Systems Inc, West Lafayette, Ind.) in the nucleus accumbens by the vendor 5-7 days before the experiment. Stereotaxic coordinates for the nucleus accumbens cannula are: A (anterior to bregma), 1.7 mm; L (lateral from the midsagittal suture, right side), 1.0 mm; and V (ventral from the dura surface), −6.0 mm (Paxinos and Watson, 1986). A concentric type probe (BR-2) from Bioanalytical Systems Inc. (West Lafayette, Ind.) is flushed with water and carefully inserted through the cannula about 16 hours before the experiment so that 2 mm of the membrane tip extends below the end of the guide cannula. The rat is then placed in a plastic test bowl to acclimate overnight. Based on methods modified from Melendez et al. (Melendez R I, Rodd-Henricks Z A, McBride W J and Murphy J M (2003), Alcohol stimulates the release of dopamine in the ventral pallidum but not in the globus pallidus: a dual-probe microdialysis study. Neuropsychopharmacology 28:939-946), the rat is connected to a fraction collection system for freely moving animals on the morning of the experiment (Raturn, BioAnalytical Systems Inc, West Lafayette, Ind.). The input tube of the dialysis probe is connected to a syringe pump (BeeHive and BabyBee, Bioanalytical Systems Inc, West Lafayette, Ind.) which delivers an artificial cerebrospinal fluid (150 mM NaCl, 3 mM KCl, 1.7 mM CaCl2 and 0.9 mM MgCl2 ([…])) to the probe at a final collection rate of 1.5 μL/min. The output tubes from the rats are attached to a refrigerated fraction collector (Bioanalytical Systems Inc, West Lafayette, Ind.). After a period of about an hour at an initial perfusion rate of 5.0 μL/min, the flow rate is decreased to 2.0 μL/min for equilibration of the probe and establishment of stable baseline levels for 1 hour, then collection of 20 minute fractions is started. Four baseline samples are collected before injection of any drugs.
Test compound is administered orally at 30 mg/kg (2 ml/kg dose volume, dissolved in a vehicle consisting of 20% Captisol® in 25 mM phosphate buffer at pH=3). The compound is administered either alone (10 min into the 4th sample; 0 min time point) or in combination with ethanol (10 min into the 1st sample; −60 min time point). Ethanol is administered intraperitoneally (ip) at a dose of 1.1 g/kg in a 15% (v/v) solution in 0.9% saline in a volume of 2.9 ml per rat. Ethanol is administered 10 min into the 4th sample (0 min time point). Dialysate samples are transferred to an Alcott 718 Autosampler/Injector with the sample cooling tray set to 5° C. (Alcott Inc., Norcross, Ga.). […]

[1] = compound 30 mg/kg oral + EtOH 1.1 g/kg ip

In the case of `Cc1nn(-c2ncccc2CO)cc1CN1CCC2(CC1)OCC(F)(F)c1cc(Cl)sc12` [Compound 1, [2-[4-[(2-chloro-4,4-difluoro-spiro[5H-thieno[2,3-c]pyran-7,4′-piperidine]-1′-yl)methyl]-3-methyl-pyrazol-1-yl]-3-pyridyl]methanol], the “Mean DA level (% of baseline) during 120 min period post-EtOH injection” value [1] is reported as 102.78 % of baseline, the “Reduction of DA response relative to Vehicle” value [1] is reported as 88.16% and the “Mean DA level (% of baseline) during 120 min period post-EtOH injection” value (compound 30 mg/kg oral + Vehicle (no ethanol)) is reported as 98.53 % of baseline. For the same compound, the “ethanol-stimulated increase in extracellular DA concentration in the nucleus accumbens” value (result in words) was “prevent the increase in extracellular DA concentrations in the nucleus accumbens”.
